The subject of one data set is Cryptosporidium parvum. Put plainly: qRT-PCR assay of the growth of C. parvum in vitro in HCT-8 host cells (primary and secondary screening, EC50). Type of data set: cell-based. The settings on record: Cryptosporidium parvum, HCT-8; for inhibition at 10 µM: primary screening at 10 uM, read-out: Inhibition (%); for inhibition at 3.3 µM: secondary screening at 3.3 uM, read-out: % Inhibition (3.3 uM).

Where [1] appears, read: primary screening at 10 uM, treated vs control.

Counter-ions that a name gives are not always drawn. Like-named read-outs stand apart in the source and are kept apart here.

In general, inhibition refers to the relative decrease from the control value, in per cent.

For `CC1(C)C(=O)[C@@H]2C[C@@]3(O)C4=CC(=O)O[C@@H](c5ccoc5)[C@]4(C)CC[C@@H]3[C@@](C)(C2=O)[C@H]1CC(=O)O` [8-HYDROX[…]], in the data set with Cryptosporidium parvum, the inhibition at 10 µM is -11%. The cytotoxicity at 10 µM in the data set “in vitro” amounted to 63%. Further, the “Hs18S ΔCT” value with HCT-8 host cells (Hs18S) (setting [1]) turned out to be 1.43.
Take `COC(=O)C[C@H]1C(C)(C)C2(O)OC34CC2C(=O)[C@]1(C)C3CC[C@]1(C)C4=CC(=O)O[C@H]1c1ccoc1` (stereo partly drawn) [8beta-HYDROXYCARAPIN, 3,8-HEMIACETAL]: in the data set with Cryptosporidium parvum, the inhibition at 10 µM was found to be 89.7% and the inhibition at 3.3 µM was 64%. In addition, the cytotoxicity at 41 h, 10 µM in “in vitro” (human) was 11.8%. Moreover, in the data set with HCT-8 host cells (Hs18S) (human, 41 h, 10 μM), the “Hs18S ΔCT” value turned out to be 0.18.
As for `COc1cc2c(cc1OC)C1(O)C(=O)c3ccc(O)c(C(=O)O)c3OC1CO2` (centres unmarked) [12a-HYDROXY-9-DEMETHYLMUNDUSERONE-8-CARBOXYLIC ACID], in the data set on Cryptosporidium parvum, the inhibition at 10 µM is 0.54%. Also, the cytotoxicity at 10 µM in “in vitro” was determined as 4.1%. Also, the “Hs18S ΔCT” value in the data set with HCT-8 host cells (Hs18S) (setting [1]) is recorded as 0.06.
For the compound `Cc1ccc2c(c1)CC[C@H]1CC(=O)CC[C@]21C` [13-METHYL-4,4-BISNOR-8,11,13-PODOCARPATRIEN-3-ONE], the inhibition at 10 µM with Cryptosporidium parvum is -31.4%. Also, the cytotoxicity at 41 h, 10 µM in the data set “in vitro” (human) was -2%. In addition, the “Hs18S ΔCT” value in the data set on HCT-8 host cells (Hs18S) (human, 41 h, 10 μM) is reported as -0.03.
Turning to `C/C1=C\CCC(=O)C2CC(C)(C)C2CC1` (centres unmarked) [15-NORCARYOPHYLLEN-3-ONE], the inhibition at 10 µM in the data set on Cryptosporidium parvum was -15.7%. For the same compound, in “in vitro” (human), the cytotoxicity at 41 h, 10 µM was -3.6%. In addition, in the data set with HCT-8 host cells (Hs18S) (human, 41 h, 10 μM), the “Hs18S ΔCT” value is -0.05.
On to `CC(C)c1ccc2c(c1)CC[C@H]1[C@](C)(CN)CCC[C@]21C` [18-AMINOABIETA-8,11,13-TRIENE SULFATE], for which, in the data set on Cryptosporidium parvum, the inhibition at 10 µM worked out at 47.6%. Also, in “in vitro” (human), the cytotoxicity at 41 h, 10 µM is -13.9%. Moreover, the “Hs18S ΔCT” value with HCT-8 host cells (Hs18S) (human, 41 h, 10 μM) is -0.19.
For `CC(=O)OCC(=O)[C@H]1CC[C@H]2[C@@H]3CC=C4C[C@@H](O)CC[C@]4(C)[C@H]3CC[C@]12C` [21-ACETOXYPREGNENOLONE], in that order: -41.2%, 6.5% and 0.10.
Take `CC(C)C1=CC2=CC[C@@H]3[C@](C)(CCC[C@@]3(C)C(=O)O)[C@H]2CC1` [ABIETIC ACID]: the inhibition at 10 µM with Cryptosporidium parvum was -58.3%. The cytotoxicity at 10 µM in the data set “in vitro” was -30.7%. Moreover, the “Hs18S ΔCT” value in the data set with HCT-8 host cells (Hs18S) (setting [1]) is -0.39.
For the compound `C[C@H]1O[C@H](O[C@H]2[C@H](O)[C@@H](O)[C@@H](O[C@H]3[C@H](O)[C@@H](O)C(O)O[C@@H]3CO)O[C@@H]2CO)[C@H](O)[C@@H](O)[C@@H]1N[C@H]1C=C(CO)[C@@H](O)[C@H](O)[C@H]1O` (some centres unmarked) [ACARBOSE], in the data set on Cryptosporidium parvum, the inhibition at 10 µM was determined as 37.8%. In “in vitro” (human), the cytotoxicity at 41 h, 10 µM was found to be 23.6%. Besides, in the data set with HCT-8 host cells (Hs18S) (human, 41 h, 10 μM), the “Hs18S ΔCT” value was 0.39.
For the compound `COc1cc(C(C)=O)cc(OC)c1O` [ACETOSYRINGONE], the inhibition at 10 µM in the data set on Cryptosporidium parvum is -26.9%. In addition, in the data set “in vitro” (human), the cytotoxicity at 41 h, 10 µM is -4%. Also, the “Hs18S ΔCT” value with HCT-8 host cells (Hs18S) (human, 41 h, 10 μM) was -0.06.
Consider `CC(=O)Oc1c2c(c(CC=C(C)C)c3c1C(=O)C1=C[C@@H]4CC5C(C)(C)OC(C/C=C(\C)C(=O)O)(C4=O)[C@@]15O3)OC(C)(CCC=C(C)C)C=C2` (some centres unmarked) [ACETYL I[…]], for which, in the data set with Cryptosporidium parvum, the inhibition at 10 µM came to 95.2% and the inhibition at 3.3 µM was 27%. In addition, the cytotoxicity at 10 µM in “in vitro” came out at 66.4%. In the data set on HCT-8 host cells (Hs18S) (setting [1]), the “Hs18S ΔCT” value was determined as 1.57.
Turning to `O=C(O)/C=C(\CC(=O)O)C(=O)O` [ACONITIC ACID], in the data set with Cryptosporidium parvum, the inhibition at 10 µM was -3.59%. The cytotoxicity at 41 h, 10 µM in “in vitro” (human) was -0.7%. Further, the “Hs18S ΔCT” value in the data set on HCT-8 host cells (Hs18S) (human, 41 h, 10 μM) was -0.01.
As for `CCN1C[C@]2(COC)[C@H](O)C[C@H](OC)[C@@]34[C@@H]5C[C@@]6(O)[C@H](OC(=O)c7ccccc7)[C@@H]5[C@@](OC(C)=O)([C@@H]([C@H](OC)[C@H]23)[C@@H]14)[C@@H](O)[C@@H]6OC` [ACONITINE], in the data set on Cryptosporidium parvum, the inhibition at 10 µM was found to be 2.84%. Moreover, the cytotoxicity at 10 µM in “in vitro” is -11.7%. Moreover, the “Hs18S ΔCT” value with HCT-8 host cells (Hs18S) (setting [1]) was -0.16.
With `CC(=O)O[C@@H]1C[C@@]23C[C@@]24CC[C@H](O[C@@H]2OC[C@@H](O)[C@H](O)[C@H]2O)C(C)(C)[C@@H]4CC[C@H]3[C@]2(C)C[C@@H]3O[C@]4(C[C@@H](C)[C@@H]3[C@@]12C)O[C@H](O)[C@@]1(C)O[C@@H]41` [ACTEIN], the inhibition at 10 µM in the data set with Cryptosporidium parvum came to 3.9%. For the same compound, in the data set “in vitro”, the cytotoxicity at 41 h, 10 µM was -33.3%. Also, in the data set with HCT-8 host cells (Hs18S) (setting [1]), the “Hs18S ΔCT” value is recorded as -0.41.
For the compound `CCCCC[C@H](CC(=O)NO)C(=O)N[C@H](C(=O)N1CCC[C@H]1CO)C(C)C` [ACTINONIN], in the data set on Cryptosporidium parvum, the inhibition at 10 µM was 31.3%. For the same compound, the cytotoxicity at 41 h, 10 µM in “in vitro” (human) is -4.6%. In addition, the “Hs18S ΔCT” value with HCT-8 host cells (Hs18S) (human, 41 h, 10 μM) is -0.06.
As for `Nc1ncnc2nc[nH]c12` [ADENINE], the inhibition at 10 µM with Cryptosporidium parvum was -9.27%. Further, the cytotoxicity at 41 h, 10 µM in “in vitro” (human) was -5.9%. For the same compound, the “Hs18S ΔCT” value in the data set with HCT-8 host cells (Hs18S) (setting [1]) is -0.08.
Consider `Nc1ncnc2c1ncn2[C@@H]1O[C@H](COP(=O)(O)O)[C@@H](O)[C@H]1O` [ADENOSINE PHOSPHATE], for which the inhibition at 10 µM in the data set with Cryptosporidium parvum is 23.5%. The cytotoxicity at 41 h, 10 µM in “in vitro” (human) was -11.8%. Moreover, the “Hs18S ΔCT” value in the data set on HCT-8 host cells (Hs18S) (human, 41 h, 10 μM) is on record as -0.16.
As for `Nc1ncnc2c1ncn2[C@@H]1O[C@H](CO)[C@@H](O)[C@H]1O` [ADENOSINE], in the data set with Cryptosporidium parvum, the inhibition at 10 µM was -13.4%. For the same compound, the cytotoxicity at 41 h, 10 µM in “in vitro” (human) was found to be 1.5%. In addition, the “Hs18S ΔCT” value in the data set with HCT-8 host cells (Hs18S) (human, 41 h, 10 μM) worked out at 0.02.
As to `OC[C@@H](O)[C@@H](O)[C@@H](O)CO` [ADONITOL], in the data set on Cryptosporidium parvum, the inhibition at 10 µM is 6.19%. Also, in the data set “in vitro” (human), the cytotoxicity at 41 h, 10 µM came to 16.4%. In addition, the “Hs18S ΔCT” value in the data set on HCT-8 host cells (Hs18S) (human, 41 h, 10 μM) was found to be 0.26.

(Values after paper PMC6736568, “Discovery of Novel Anti-cryptosporidial Activities From Natural Products by in vitro High-Throughput Phenotypic Screening” (Frontiers in Microbiology, 2019).)
